Tests used:
[1] = molecular target: T1, Agt1 (AGT1 from ale strain A60) (Saccharomyces cerevisiae, UniProt P53048); experiment: inhibition of […]-maltose uptake into intact yeast transformants; format: cell-based
T1 sequence (P53048 1-616): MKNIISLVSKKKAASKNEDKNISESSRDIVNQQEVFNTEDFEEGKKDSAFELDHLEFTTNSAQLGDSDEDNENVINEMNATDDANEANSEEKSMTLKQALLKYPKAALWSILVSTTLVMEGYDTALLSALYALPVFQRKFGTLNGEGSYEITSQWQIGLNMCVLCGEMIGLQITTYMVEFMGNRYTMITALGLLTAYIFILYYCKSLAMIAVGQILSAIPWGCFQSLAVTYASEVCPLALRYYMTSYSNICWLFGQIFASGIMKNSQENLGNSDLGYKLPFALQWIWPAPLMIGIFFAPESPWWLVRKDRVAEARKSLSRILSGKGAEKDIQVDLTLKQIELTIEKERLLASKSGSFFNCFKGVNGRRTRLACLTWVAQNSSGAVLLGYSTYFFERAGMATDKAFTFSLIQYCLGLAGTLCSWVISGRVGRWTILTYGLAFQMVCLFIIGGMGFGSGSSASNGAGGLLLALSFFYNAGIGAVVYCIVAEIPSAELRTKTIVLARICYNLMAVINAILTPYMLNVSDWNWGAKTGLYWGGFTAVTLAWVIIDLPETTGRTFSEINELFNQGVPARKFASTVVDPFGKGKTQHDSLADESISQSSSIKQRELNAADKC

[2] = molecular target: T2, Agt1 (AGT1 from ale strain A179) (Saccharomyces cerevisiae, UniProt P53048); experiment: as above; format: cell-based
T2 sequence (P53048 1-616): T1 sequence (P53048 1-616)

[3] = read-out: % inhibition at 50 mM
[4] = read-out: % inhibition at 75 mM

SMILES | inhibition at 50000 µM [1, 3] [%] | inhibition at 50000 µM [2, 3] [%] | inhibition at 75000 µM [1, 4] [%] | inhibition at 75000 µM [2, 4] [%]
OC[C@H]1O[C@H](O[C@H]2[C@H](O)[C@@H](O)[C@@H](O[C@H]3[C@H](O)[C@@H](O)C(O)O[C@@H]3CO)O[C@@H]2CO)[C@H](O)[C@@H](O)[C@@H]1O (stereo partly shown) [maltotriose] | 85 | 79 |  | 
OC[C@H]1O[C@H](O[C@H]2O[C@H](CO)[C@@H](O)[C@H](O)[C@H]2O)[C@H](O)[C@@H](O)[C@@H]1O [trehalose] |  |  | 94 | 85

Source: article PMC2878602 (Fems Yeast Research, 2010)
